| SMILES | melting point |
| --- | --- |
| CSc1ccc(C(O)CBr)cc1Cl (stereo not drawn) | 86 to 87 °C |
| CC(C)c1nc(C(C)C)c(CSc2c(F)c(F)cc(F)c2F)c(-c2ccc(F)cc2)c1CO | 109 to 110 °C |
| CC(C)N[C@H](C(=O)O)C(C)C | > 300 °C |
| O=C1NC(=O)C(c2ccccc2)=C1Nc1cccc(Cl)c1 | 188 °C |
| CCc1nc2c(N)nc3ccccc3c2n1CC#Cc1cccc([N+](=O)[O-])c1 | 224 to 243 °C |
| CCOC(=O)Cn1nnnc1S(=O)(=O)Cc1ccccc1 | 105 to 107 °C |
| Cc1ccc(C(=O)c2c(C)cc(C)cc2O)cc1 | 102 to 105 °C |
| Clc1nc2ccccc2nc1Nc1cccc2ccccc12 | 157 to 159 °C |
| COc1ccc(NN=C(Sc2cc(C)ccc2C)C(C)=O)cc1 | 131 to 134 °C |
| CC(C)Cc1nc2ccc(OC(C)(C)C)cc2c(-c2ccccc2F)c1C#N | 127 to 129 °C |
| CC(C)Oc1ccc(Cl)c2c(=O)c3ccccc3sc12 | 91 to 93 °C |
| Fc1ccc(COc2cccnc2NC(=S)Nc2ccc(Cl)cc2)c(F)c1 | 154 to 156 °C |
| Cc1nc2ccccc2n1-c1ccccn1 | 121 to 123 °C |
| CCN(CC)CCOC(=O)c1cnc2ccn(-c3cccc(Cl)c3)n2c1=O | 153 to 154 °C |
| O=C1CCCN1CCCNc1cc(C(c2cc(F)ccc2F)S(=O)(=O)c2ccc(Cl)cc2)c(Cl)cn1 (stereo not drawn) | 78 to 80 °C |
| CCCn1cc(-c2nc(C(N)=O)c(N)nc2-c2ccccc2)ccc1=O | > 250 °C |
| N#CCCNC(=O)c1cccc(-c2cccc3cc(Cc4cccc(C(F)(F)F)c4)oc23)c1 | 154 to 155 °C |
| COc1cc(C(C)C)c2c(c1)S(=O)(=O)N(COc1cc(C)oc(=O)c1Cl)C2=O | 182 to 184 °C |
| COc1c(C(N)=O)oc2c3ccccc3n(C)c12 | 174 to 177 °C |
| CSc1ccc(NC(=N)c2ccc(F)cc2)cc1 | 121 to 124 °C |
| CCOC(=O)c1nc(NC)sc1C(=O)CC | 84 to 86 °C |
| CCN(CC)c1nc(-c2ccc(OC)c(OC)c2)nc2sc(C#N)c(C)c12 | 159 to 161 °C |
| CCOc1ccc2[nH]c(C)cc2c1O | 77 to 78 °C |
| CN1CC[C@@H](c2c(O)cc(O)c3c(=O)cc(-c4cccc(F)c4Cl)oc23)[C@@H]1CO | 221 to 223 °C |
| Cc1c(C)c2c(c(C)c1O)CCC(C)(CC(=O)O)O2 (stereo not drawn) | 168 to 171 °C |
| Cc1ccccc1Oc1ccc2ccc(N)nc2n1 | 192 °C |

| SMILES | melting point |
| --- | --- |
| CCc1cc(Cc2cc(CC)c(N)c(C)c2Cl)c(Cl)c(C)c1N | 115 to 117 °C |
| CC(C)Oc1ccc2c(c1)OCC1c3ccccc3OC21 (stereo not drawn) | 100 to 102 °C |
| Cc1ccc2c(c1)OCC(=O)N2 | 197 °C |
| CN1CCN(c2cc(Cl)cc3c2c(=O)n(Cc2ccccc2)c(=O)n3C)CC1 | 132 to 136 °C |
| O=C1C(=Cc2sccc2Oc2ccccc2)CCc2cc(OCCn3ccnc3)ccc21 | 135 to 137 °C |
| O=C(Nc1ccccc1)c1sc2c([N+](=O)[O-])c(O)c(O)cc2c1Cl | 288 °C |
| Cc1ccc(S(=O)(=O)N2CCc3ccccc3C(Oc3cccc(C(F)(F)F)c3)C2)cc1 (stereo not drawn) | 112 to 114 °C |
| COc1ccc2ccc(O)c([N+](=O)[O-])c2c1 | 130 to 131 °C |
| O=C(Nc1ccccc1)n1[nH]c(C(F)(F)F)cc1=O | 109 to 110 °C |
| COc1cc2ncc(C#N)c(Nc3ccc4sc(C)nc4c3)c2cc1OC | 118 to 120 °C |
| Fc1ccc(Nc2nc3ccccc3o2)c(F)c1 | 115 to 117 °C |
| Cc1cc(-c2csc(-c3cccc(C(=O)O)c3)n2)c(C)o1 | 174 to 175 °C |
| Cc1ccccc1Sc1ccc2c(c1)CC[C@H]1NC(=O)CC[C@]21C | 192 °C |
| O=C(Nc1ccccc1C(=O)O)C(=Cc1ccccc1)C(=O)Nc1ccccc1C(=O)O | 247 to 249 °C |
| Cc1cc2c(s1)CCCc1cc(=O)n(-c3ccc(Cl)cc3)nc1-2 | 150 to 151 °C |
| O=[N+]([O-])C=Cc1ccc(O)c(Cl)c1 | 127 to 129 °C |
| CCOC(=O)CC(=O)N(C)c1ccccc1N | 63 to 64 °C |
| Cc1nc2c(S(N)(=O)=O)cccc2s1 | 236 to 239 °C |
| COc1cc(C=O)c(C=O)cc1OCCCl | 113 to 114 °C |
| Fc1ccc(-c2c(-c3ccccc3)oc3ncnc(Cl)c23)cc1 | 124 to 127 °C |
| CCn1c(Oc2cccc(NC=O)c2)nnc1[C@@H](C)NS(=O)(=O)c1ccc(Cl)c(Cl)c1 | 168 to 170 °C |
| Cc1nc(N)nc(N)c1CCCC(C)c1ccc(-c2cc(F)cc(F)c2)cc1 (stereo not drawn) | 129 to 134 °C |
| CC(C)(C)OC(=O)COc1cc2cc(C(C)(C)O)sc2c(Cl)c1Cl | 137 to 138 °C |
| N#Cc1ccc(C=O)c(N2CCCC2)c1 | 121 °C |
| COc1cc(OC)c(-c2cc3ccccc3s2)cc1C=O | 134 to 136 °C |

Continued, values first:

| melting point | SMILES |
| --- | --- |
| 63 to 66 °C | CN1C(=O)C(c2ccc(OC(F)F)cc2)(c2cccc(CCCCO)c2)N=C1N (stereo not drawn) |
| 142 to 144 °C | COc1cc(C(=O)NS(=O)(=O)c2ccccc2C)ccc1Cc1cn(C)c2ccc(C(=O)NC[C@H](C)CC(F)(F)F)cc12 |
| 95 to 99 °C | O=S(=O)(Oc1ccc2sc(-c3ccc(OCCN4CCCC4)cc3)cc2c1)C(F)(F)F |
| 124 to 127 °C | O=C(C[C@@H](CCCC1CCCCC1)c1nc(CNC2CCCC2)co1)NO |
| 287 °C | CN(C)CCCNC(=O)c1ccc(/C=C/c2ccc3c(=O)[nH]ncc3c2)cc1 |
| 124 to 126 °C | COc1ccc(C(C#N)N2C(=O)c3cccc(NC(C)=O)c3C2=O)cc1OC1CCCC1 (stereo not drawn) |
| 219 to 220 °C | O=C(O)CNC(=O)CCc1cccc(-c2nc(=O)c3ccccc3s2)n1 |
| 89 to 90 °C | CCCCCCCCCCCC(=O)OC1CC(c2ccccc2)N(O)C(c2ccccc2)C1 (stereo not drawn) |
| 198 to 199 °C | CC(C)CC(=O)Nc1nc(-c2ccccc2)c(-c2ccc(=O)n(C(C)C)n2)s1 |
| 163 to 165 °C | CCOC(=O)c1c2n(c3cc(N4CCN(C)CC4)c(F)cc3c1=O)CCCC2 |
| 155 to 157 °C | O=C1C(=CO)CC[C@H]2C(=O)C(=CO)CC[C@H]12 |
| 200 to 208 °C | O=C1N=CNC(O)C1C(=O)Nc1ccccc1 (stereo not drawn) |
| 214 to 216 °C | CC(=O)CC(C)(C)Cn1cnc2c(N)nc3ccccc3c21 |
| 161 to 162 °C | Cc1c(N2CCCCC2)ccnc1CSc1nc2cc(N3CCCCC3)c(F)cc2[nH]1 |
| 139 to 146 °C | CC1(C)CC(NC(=O)ON(Cc2ccccc2)Cc2ccccc2)CC(C)(CNC(=O)ON(Cc2ccccc2)Cc2ccccc2)C1 (stereo not drawn) |
| 167 to 168 °C | COC(=O)Cc1ccc(NC(=O)Nc2ccccc2C)c(OC)c1 |
| 39 to 44 °C | COc1ccc(C2=NN(C3CCN(CCCCCCN4C(=O)c5ccccc5C4=O)CC3)C(=O)[C@@H]3CC=CC[C@H]23)cc1OC |
| 92 to 95 °C | CC(=O)NCCC1CCc2ccc3nc(C4CC4)oc3c21 (stereo not drawn) |
| 52 °C | CC(C)(C)[Si](C)(C)O[C@H]1CCC[C@@]2(C)[C@H]1CC[C@@H]2[C@]1(C)CC(=O)CO1 |
| 160 to 162 °C | C(=C\c1nc(COc2ccc(-n3ccnc3)cc2)co1)/c1ccccc1 |
| 76 to 78 °C | CCSc1cc(C)nc(SCC)c1NC(=O)CCCCCCCCSc1nc2ccccc2[nH]1 |
| 74 to 76 °C | CCOC(=O)C[C@H]1CC[C@H](CNC(C)=O)CC1 |
